Test results reported in patent publication US12649733B2, “3,6-diamino-pyridazin-3-yl derivatives, pharmaceutical compositions containing them and their uses as pro-apoptotic agents” (LES LABORATOIRES SERVIER, priority 2019, dated 2026).

Experiments:
MOLT-4 cells = experiment: MOLT-4 cell viability, MTT assay; type: cell-based; conditions: Homo sapiens, MOLT-4, 48 h, 48 h exposure
Procedure, shortened: (§1)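 Viability read by MTT reduction (OD 540 nm after overnight SDS/HCl lysis) after 48 h compound treatment of cells in RPMI 1640/10% FBS. Triplicates at nine concentrations, 3.16-fold apart; four-parameter curve fitting yields IC50.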

Bcl-xL protein = target: T1, Bcl-xL protein (Homo sapiens, UniProt Q07817, N197C); experiment: Fluorescence quenching assay (PUMA peptide displacement); type: binding; conditions: 1 nM protein, 400 nM peptide, 2 hours at 23° C.; KI determined from IC50
T1 construct: (2-197)[N197C]; His-His (two His8 stretches joined by a Gly/Ala/Ser/Thr linker)
T1 sequence (Q07817 2-197 N197C): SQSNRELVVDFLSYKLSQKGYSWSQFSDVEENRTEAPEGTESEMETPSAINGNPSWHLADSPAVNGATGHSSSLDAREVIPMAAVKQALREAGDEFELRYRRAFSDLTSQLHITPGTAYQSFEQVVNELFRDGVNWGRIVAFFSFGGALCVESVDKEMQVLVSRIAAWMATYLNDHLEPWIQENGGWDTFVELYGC
Procedure, shortened: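 Compounds were tested as an 11-point series in pH 7.4 HEPES/NaCl/Tween buffer with 5% DMSO, 2 h at 23 °C. Cy5-tagged Bcl-xL(2-197, N197C) at 1 nM and quencher-tagged PUMA peptide at 400 nM were used. Competitive binders restore fluorescence (620/680 nm), and IC50 values were converted to KI.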

H146 cells = experiment: H146 cell viability, MTT assay; type: cell-based; conditions: Homo sapiens, NCI-H146, 48 h, 48 h exposure
Procedure, shortened: as §1

BCLXL [1] = target: T2, BCLXL (Homo sapiens, UniProt Q07817, V10N/V9A); experiment: AlphaLISA assay (BIM peptide displacement); type: binding; conditions: 20 pM protein, 1 nM peptide
T2 sequence (Q07817 with tags, fused parts or gaps V9A/V10N): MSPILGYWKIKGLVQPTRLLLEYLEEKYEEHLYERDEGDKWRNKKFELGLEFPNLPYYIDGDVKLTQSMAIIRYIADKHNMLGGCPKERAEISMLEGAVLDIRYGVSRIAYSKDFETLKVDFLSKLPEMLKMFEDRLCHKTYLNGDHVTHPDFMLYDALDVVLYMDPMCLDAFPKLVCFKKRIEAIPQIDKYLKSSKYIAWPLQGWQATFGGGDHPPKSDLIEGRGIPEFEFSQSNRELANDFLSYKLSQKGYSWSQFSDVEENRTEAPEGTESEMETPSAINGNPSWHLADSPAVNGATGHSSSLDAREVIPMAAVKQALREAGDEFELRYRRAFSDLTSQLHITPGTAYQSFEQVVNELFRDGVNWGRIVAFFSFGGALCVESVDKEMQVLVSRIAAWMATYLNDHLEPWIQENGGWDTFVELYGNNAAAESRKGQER
Procedure, shortened: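 Competitive displacement of fluorescein-labelled BIM peptide (1 nM) from biotinylated GST-BCL-XL(2-209) (20 pM) in 10 mM HEPES, 150 mM NaCl, 0.05% Tween 20, pH 7.4, 4% DMSO; 11-point dilutions. Overnight at 23° C with acceptor beads, then donor beads 2 h; Alpha signal at 615 nm.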

BCLXL [2] = target: T2, BCLXL; experiment: Fluorescence polarisation assay (PUMA-based probe displacement); type: binding; note: 20 nM protein, 10 nM fluorescent probe

Row | Structure (SMILES) | IC50 (MOLT-4 cells) [nM] | Ki (Bcl-xL protein) [nM] | IC50 (H146 cells) [nM] | IC50 (BCLXL [1]) [nM] | Ki (BCLXL [2]) [nM]
1 | CN(C)CC#Cc1ccc(OCCCc2sc(N(C)c3cc(C4CC4)c(Nc4nc5ccccc5s4)nn3)nc2C(=O)O)c(F)c1 [Example 62, 2-({6-[(1,3-Benzothiazol-2-yl)amino]-5-cyclopropylpyridazin-3-yl}(methyl)amino)-5-(3-{4-[3-(dimethylamino)prop-1-yn-1-yl]-2-fluorophenoxy}propyl)-1,3-thiazole-4-carboxylic acid] | 0.444 | 0.006 | 4.66 | 0.11 | < 1
2 | Cc1cc(N(C)c2nc(C(=O)O)c(CC(C)COc3ccc(C#CCN(C)C)cc3F)s2)nnc1Nc1nc2ccccc2s1 (stereo not shown) [Example 116, 2-({6-[(1,3-Benzothiazol-2-yl)amino]-5-methylpyridazin-3-yl}(methyl)amino)-5-(3-{4-[3-(dimethylamino)prop-1-yn-1-yl]-2-fluorophenoxy}-2-methylpropyl)-1,3-thiazole-4-carboxylic acid] | 3.06 | 0.0086 | 19.1 | 0.017 | 
3 | CNCC#Cc1ccc(OCCCc2sc(N(CC(O)CO)c3cc(C)c(Nc4nc5ccccc5s4)nn3)nc2C(=O)O)c(F)c1 (stereo not shown) [Example 117, 2-[[6-(1,3-Benzothiazol-2-ylamino)-5-methyl-pyridazin-3-yl]-(2,3-dihydroxypropyl)amino]-5-[3-[2-fluoro-4-[3-(methylamino)prop-1-ynyl]phenoxy]propyl]thiazole-4-carboxylic acid] | 486 | 0.0066 | 49.6 | 0.0099 | 
4 | CNCC#Cc1ccc(OCCCc2sc(N(CC(CO)OC)c3cc(C)c(Nc4nc5ccccc5s4)nn3)nc2C(=O)O)c(F)c1 (stereo not shown) [Example 118, 2-[[6-(1,3-Benzothiazol-2-ylamino)-5-methyl-pyridazin-3-yl]-(3-hydroxy-2-methoxy-propyl)amino]-5-[3-[2-fluoro-4-[3-(methylamino)prop-1-ynyl]phenoxy]propyl]thiazole-4-carboxylic acid] | 96 | 0.033 | 32.6 | 0.018 | 
5 | CNCC#Cc1ccc(OCCCc2sc(N(CCCCCO)c3cc(C)c(Nc4nc5ccccc5s4)nn3)nc2C(=O)O)c(F)c1 [Example 128] | 18.1 | 0.028 | 20.8 | 0.013 | 
6 | Cc1cc(N(CCCCO)c2nc(C(=O)O)c(CCCOc3ccc(C#CCN(CCCS(=O)(=O)O)CCCS(=O)(=O)O)cc3F)s2)nnc1Nc1nc2ccccc2s1 [Example 147, 2-({6-[(1,3-Benzothiazol-2-yl)amino]-5-methylpyridazin-3-yl}(4-hydroxybutyl)amino)-5-[3-(4-{3-[bis(3-sulfopropyl)amino]prop-1-yn-1-yl}-2-fluorophenoxy)propyl]-1,3-thiazole-4-carboxylic acid] |  | 0.0097 |  | 0.0071 | 
7 | Cc1cc(N(CCCCO)c2nc(C(=O)O)c(CCCOc3ccc(C#CCNCCCS(=O)(=O)O)cc3F)s2)nnc1Nc1nc2ccccc2s1 [Example 148, 2-[[6-(1,3-Benzothiazol-2-ylamino)-5-methyl-pyridazin-3-yl]-(4-hydroxybutyl)amino]-5-[3-[2-fluoro-4-[3-(3-sulfopropylamino)prop-1-ynyl]phenoxy]propyl]thiazole-4-carboxylic acid] |  | 0.0012 |  | 0.0057 | 
8 | Cc1cc(N(C)c2nc(C(=O)O)c(C[C@H](C)COc3ccc(C#CCN(C)C)cc3F)s2)nnc1Nc1nc2ccccc2s1 [Example 161, 2-({6-[(1,3-Benzothiazol-2-yl)amino]-5-methylpyridazin-3-yl}(methyl)amino)-5-[(2S)-3-{4-[3-(dimethylamino)prop-1-yn-1-yl]-2-fluorophenoxy}-2-methylpropyl]-1,3-thiazole-4-carboxylic acid] | 3.23 |  | 30.2 | 0.032 | < 1
9 | Cc1cc(N(CCCCNCCN2CCN(C)CC2)c2nc(C(=O)O)c(CCCOc3ccc(C#CCN(C)C)cc3F)s2)nnc1Nc1nc2ccccc2s1 [Example 168, 2-[[6-(1,3-Benzothiazol-2-ylamino)-5-methyl-pyridazin-3-yl]-[4-[2-(4-methylpiperazin-1-yl)ethylamino]butyl]amino]-5-[3-[4-[3-(dimethylamino)prop-1-ynyl]-2-fluoro-phenoxy]propyl]thiazole-4-carboxylic acid] | 178 | 0.0026 |  | 0.012 | < 1
10 | CNCC#Cc1ccc(OC/C(C)=C/c2sc(N(C)c3cc(C)c(Nc4nc5ccccc5s4)nn3)nc2C(=O)O)c(F)c1 [Example 174, 2-({6-[(1,3-Benzothiazol-2-yl)amino]-5-methylpyridazin-3-yl}(methyl)amino)-5-[(1E)-3-{2-fluoro-4-[3-(methylamino)prop-1-yn-1-yl]phenoxy}-2-methylprop-1-en-1-yl]-1,3-thiazole-4-carboxylic acid] | 1660 | 0.043 | 12600 | 0.6 | 

Next, values leading:

Row | IC50 (MOLT-4 cells) [nM] | Ki (Bcl-xL protein) [nM] | IC50 (H146 cells) [nM] | IC50 (BCLXL [1]) [nM] | Ki (BCLXL [2]) [nM] | Structure (SMILES)
11 | 0.462 | 0.0044 | 2.84 | 0.0074 | 1.2 | Cc1cc(N(C)c2nc(C(=O)O)c(CCCOc3ccc(C#CCN(C)C)cc3F)s2)nnc1Nc1nc2ccccc2s1 [Example 50, 2-[[6-(1,3-Benzothiazol-2-ylamino)-5-methyl-pyridazin-3-yl]-methyl-amino]-5-[3-[4-[3-(dimethylamino)prop-1-ynyl]-2-fluoro-phenoxy]propyl]thiazole-4-carboxylic acid]
12 | 19.8 | 0.0011 | 6.38 | 0.011 | < 1 | CNCC#Cc1ccc(OCCCc2sc(N(CCC(O)COC)c3cc(C)c(Nc4nc5ccccc5s4)nn3)nc2C(=O)O)c(F)c1 (stereo not shown) [Example 109, 2-[[6-(1,3-Benzothiazol-2-ylamino)-5-methyl-pyridazin-3-yl]-(3-hydroxy-4-methoxy-butyl)amino]-5-[3-[2-fluoro-4-[3-(methylamino)prop-1-ynyl]phenoxy]propyl]thiazole-4-carboxylic acid]
13 | 3.81 | 0.011 | 1.58 | 0.053 |  | CNCC#Cc1ccc(OCCCc2sc(N(CCCCO)c3cc(C)c(Nc4nc5ccccc5s4)nn3)nc2C(=O)O)c(F)c1 [Example 114, 2-({6-[(1,3-Benzothiazol-2-yl)amino]-5-methylpyridazin-3-yl}(4-hydroxybutyl)amino)-5-(3-{2-fluoro-4-[3-(methylamino)prop-1-yn-1-yl]phenoxy}propyl)-1,3-thiazole-4-carboxylic acid]
14 | 280 | 0.003 | 51.4 | 0.0098 |  | Cc1cc(N(CC(O)CO)c2nc(C(=O)O)c(CCCOc3ccc(C#CCN(C)C)cc3F)s2)nnc1Nc1nc2ccccc2s1 (stereo not shown) [Example 122, 2-[[6-(1,3-Benzothiazol-2-ylamino)-5-methyl-pyridazin-3-yl]-(2,3-dihydroxypropyl)amino]-5-[3-[4-[3-(dimethylamino)prop-1-ynyl]-2-fluoro-phenoxy]propyl]thiazole-4-carboxylic acid]
15 | 19.2 | 0.0017 | 50.6 | 0.0076 | < 1 | Cc1cc(N(CCCC(O)CN(C)CCN(C)C)c2nc(C(=O)O)c(CCCOc3ccc(C#CCN(C)C)cc3F)s2)nnc1Nc1nc2ccccc2s1 (stereo not shown) [Example 124, 2-[[6-(1,3-Benzothiazol-2-ylamino)-5-methyl-pyridazin-3-yl]-[5-[2-(dimethylamino)ethyl-methyl-amino]-4-hydroxy-pentyl]amino]-5-[3-[4-[3-(dimethylamino)prop-1-ynyl]-2-fluoro-phenoxy]propyl]thiazole-4-carboxylic acid]
16 |  | 0.0055 |  | 0.014 | < 1 | Cc1cc(N(CCCCCO)c2nc(C(=O)O)c(CCCOc3ccc(C#CCN(C)C)cc3F)s2)nnc1Nc1nc2ccccc2s1 [Example 141, 2-[[6-(1,3-Benzothiazol-2-ylamino)-5-methyl-pyridazin-3-yl]-(5-hydroxypentyl)amino]-5-[3-[4-[3-(dimethylamino)prop-1-ynyl]-2-fluoro-phenoxy]propyl]thiazole-4-carboxylic acid]
17 | 127 | 0.0033 | 208 | 0.0079 |  | Cc1cc(N(CCCC(O)CNCCN2CCCCC2)c2nc(C(=O)O)c(CCCOc3ccc(C#CCN(C)C)cc3F)s2)nnc1Nc1nc2ccccc2s1 (stereo not shown) [Example 173, 2-[[6-(1,3-Benzothiazol-2-ylamino)-5-methyl-pyridazin-3-yl]-[4-hydroxy-5-[2-(1-piperidyl)ethylamino]pentyl]amino]-5-[3-[4-[3-(dimethylamino)prop-1-ynyl]-2-fluoro-phenoxy]propyl]thiazole-4-carboxylic acid]
